The source of these data is article PMC5352776, “Neutron activation increases activity of ruthenium-based complexes and induces cell death in glioma cells independent of p53 tumor suppressor gene” (Biometals, 2017).

Usually IC50 stands for the concentration at which inhibition is half-maximal.

In experiment [1] the test system is T98 (p53 mutant) glioblastoma cells. As to the kind of experiment: MTT cytotoxic activity assay, T98 cells. The settings on record: for Selectivity index T98: SI = IC50 MRC5/IC50 tumor cell; for IC50: 24 h exposure, MTT. The format is cell-based, human. On the procedure: (§1) Malignant human Glioblastoma tumor cell lines U87 (p53 wild-type), T98 (p53 mutant) and normal cells MRC5 (Human Fetal Lung Fibroblast) were obtained from the American Type Culture Collection (ATCC, USA). The cells were maintained in Dulbecco’s Modified Eagle’s Medium (DMEM, Gibco), supplemented with 10% fetal bovine serum (FBS-Cultilab) and antibiotics (50 U/ml penicillin, […] streptomycin), at 37 °C in a humidified 5% CO2 atmosphere. For all experiments, cells were seeded at appropriate concentrations to ensure exponential growth.
(§2) The cytotoxicity of ruthenium(II) compounds was determined by measuring mitochondrial activity as a indicator of cell viability dependent on the reduction of MTT 3-(4,5-dimethylthiazol-2-yl)-2,5-diphenyl tetrazolium bromide to formazan (Mosmann [1983]). Cells (1.5 × 10^3/well) were seeded in 200 μl complete medium into 96-well microplates in triplicates. The plates were incubated at 37 °C in 5% CO2 for 24 h to allow cell adhesion, prior to drug testing. All radioactive or non-radioactive tested compounds were dissolved in sterile DMSO and diluted to reach final concentrations ranging from 1 × 10^−10 to 1 × 10^−4 mol l^−1. Cells were exposed to the compounds for a 24 h period and then, 0.5 mg ml^−1 of MTT solution was added to each well and further incubated for 4 h. The precipitated formazan crystals were dissolved in DMSO and the absorbance of produced color measured spectrophotometrically at 570 nm. The results were expressed as % viability of non-treated cell (control) versus drug concentration and the concentration that reduces cell viability by 50% (IC50) was calculated.
For orientation: Tetrazolium dyes change colour on reduction, which living cells bring about.

The test system of experiment [2] is U87 (p53 wild-type) glioblastoma cells. Kind of experiment: MTT cytotoxic activity assay, U87 cells. The settings on record: for Selectivity index U87: SI = IC50 MRC5/IC50 tumor cell; for IC50: 24 h exposure, MTT. The format is cell-based, human. The protocol: as §1, §2
The test system of experiment [3] is MRC5 (Human Fetal Lung Fibroblast). Kind of experiment: MTT cytotoxic activity assay, MRC5 normal cells. The settings on record: 24 h exposure. The format is cell-based. On the procedure:
as §1, §2

The mark [4] stands for this setting: Radioactive (neutron activated form).
The mark [5] stands for this setting: non-radioactive compounds, listed as [Ru(pic)(bipy)(dppp)]PF6.
The mark [6] stands for this setting: radioactive (neutron activated) compounds.
[7] abbreviates: non-radioactive compounds, listed as [Ru(pic)(bipy)(dppf)]PF6.

Consider `N.N.[Cl][Pt][Cl]` [Cisplatin, reference compound], for which, in experiment [1] (Non-radioactive), the “Selectivity index T98” value amounted to 0.95. Further, the figures for the IC50 in experiment [1] (non-radioactive compounds), in experiment [2] (non-radioactive compounds) and in experiment [3] (non-radioactive compounds) were 5300 ± 1900 nM, 1800 ± 200 nM and 5050 ± 700 nM, respectively. The “Selectivity index U87” value in experiment [2] (Non-radioactive) worked out at 2.87.
In the case of `F[P-](F)(F)(F)(F)F.O=C([O-])c1ccccn1.[Ru+2].c1ccc(-c2ccccn2)nc1.c1ccc(P(CCCP(c2ccccc2)c2ccccc2)c2ccccc2)cc1` [[Ru(pic)(bipy)(dppp)]PF6 (4), [Ru(pic)(bipy)(dppp)]PF6], the results for the “Selectivity index T98” value in experiment [1] (Non-radioactive) and in experiment [1] (setting [4]) were 0.98 and 0.76, respectively. In addition, the IC50 in experiment [1] (non-radioactive compounds) was 1500 ± 500 nM; in experiment [1] (setting [5]), 1490 ± 500 nM; in experiment [2] (non-radioactive compounds) it was 4900 ± 2500 nM; in experiment [2] (setting [5]), 4920 ± 2460 nM; in experiment [3] (non-radioactive compounds), 1470 ± 600 nM. For the same compound, the figures for the “Selectivity index U87” value in experiment [2] (Non-radioactive) and in experiment [2] (setting [4]) were 0.29 and 1.52, respectively.
“[^103Ru(pic)(bipy)(dppe)]PF6 [[^103Ru(pic)(bipy)(dppe)]PF6 (2)]”: the IC50 in experiment [1] (setting [6]) amounted to 0.52 nM; in experiment [2] (setting [6]), 0.23 nM; in experiment [3] (setting [6]), 0.2 nM.
Taken in the same sequence, the figures for “[^103Ru(pic)(bipy)(dppf)]PF6 [[^103Ru(pic)(bipy)(dppf)]PF6 (3)]” were 0.54 nM, 0.42 nM and 0.38 nM.
Taken in the same sequence, the figures for “[^103Ru(pic)(bipy)(dppb)]PF6 [[^103Ru(pic)(bipy)(dppb)]PF6 (1)]” were 0.34 nM, 0.24 nM and 0.39 nM.
On to `F[P-](F)(F)(F)(F)F.O=C([O-])c1ccccn1.[Fe+2].[Ru+2].c1ccc(-c2ccccn2)nc1.c1ccc(P(c2ccccc2)[c-]2cccc2)cc1.c1ccc(P(c2ccccc2)[c-]2cccc2)cc1` [[Ru(pic)(bipy)(dppf)]PF6 (3), [Ru(pic)(bipy)(dppf)]PF6], for which the “Selectivity index T98” value in experiment [1] (Non-radioactive) came out at 2.91; in experiment [1] (setting [4]), 0.70. Further, the half-maximal inhibitory concentration (IC50) in experiment [1] (non-radioactive compounds) was 3000 ± 700 nM; in experiment [1] (setting [7]), 3050 ± 720 nM; in experiment [2] (non-radioactive compounds), 4000 ± 8500 nM; in experiment [2] (setting [7]) it was 3980 ± 850 nM; in experiment [3] (non-radioactive compounds) it was 8900 ± 2300 nM. The “Selectivity index U87” value stood at 2.23 in experiment [2] (Non-radioactive) and 0.90 in experiment [2] (setting [4]).
For “[^103Ru(pic)(bipy)(dppp)]PF6 [[^103Ru(pic)(bipy)(dppp)]PF6 (4)]”, the results for the IC50 in experiment [1] (setting [6]), in experiment [2] (setting [6]) and in experiment [3] (setting [6]) were 0.62 nM, 0.31 nM and 0.47 nM, respectively.
As for `F[P-](F)(F)(F)(F)F.O=C([O-])c1ccccn1.[Ru+2].c1ccc(-c2ccccn2)nc1.c1ccc(P(CCP(c2ccccc2)c2ccccc2)c2ccccc2)cc1` [[Ru(pic)(bipy)(dppe)]PF6 (2), [Ru(pic)(bipy)(dppe)]PF6], the results for the “Selectivity index T98” value in experiment [1] (Non-radioactive) and in experiment [1] (setting [4]) were 4.32 and 0.39, respectively. In addition, the IC50 in experiment [1] (non-radioactive compounds) stood at 19000 ± 5900 nM; in experiment [2] (non-radioactive compounds), 27800 ± 11700 nM; in experiment [3] (non-radioactive compounds) it was 82100 ± 9100 nM. The “Selectivity index U87” value in experiment [2] (Non-radioactive) amounted to 2.95; in experiment [2] (setting [4]) it was 0.87.
As to `F[P-](F)(F)(F)(F)F.O=C([O-])c1ccccn1.[Ru+2].c1ccc(-c2ccccn2)nc1.c1ccc(P(CCCCP(c2ccccc2)c2ccccc2)c2ccccc2)cc1` [[Ru(pic)(bipy)(dppb)]PF6 (1), [Ru(pic)(bipy)(dppb)]PF6], the “Selectivity index T98” value in experiment [1] (Non-radioactive) is 3.45; in experiment [1] (setting [4]) it was 1.14. The IC50 in experiment [1] (non-radioactive compounds) stood at 11900 ± 5900 nM; in experiment [2] (non-radioactive compounds), 16100 ± 3300 nM; in experiment [3] (non-radioactive compounds), 41000 ± 10100 nM. Besides, the “Selectivity index U87” value in experiment [2] (Non-radioactive) worked out at 2.55; in experiment [2] (setting [4]), 1.63.
